Assays:
[1] = test system: Pseudococcus longispinus males; assay: Field trial of attraction response of males, persimmon orchard in Alginet; format: in vivo; conditions: for Captures (mean) of P. longispinus males: rubber septum carrier loaded with 250 μg, white sticky cardboard trap, six blocks, number of males captured per trap and per day compared
Protocol: (§1) The response of Pseudococcus longispinus males to 2-(1,5-dimethyl-4-methylenecyclopent-2-en-1-yl)ethyl acetate was evaluated by means of a field trial carried out in a persimmon orchard, located in the town of Alginet (Valencia, Spain). Six blocks of 3 devices were installed: (A) a device with a carrier, without attractant and with a trap consisting of a white sticky cardboard (95×150 mm), (B) a device with a carrier loaded with 250 μg of the described substance by Miller et al. in 2009 (e.g. 2-(1,5,5-trimethylcyclopent-2-en-1-yl)ethyl acetate) and a trap consisting of a white sticky cardboard, and (C) a carrier device loaded with 250 μg of 2-(1,5-dimethyl-4-methylenecyclopent-2-en-1-yl)ethyl acetate and a trap consisting of a white sticky cardboard. Within each block, the devices were placed at a distance of 10 m from each other, while the distance between blocks was at least 30 m. The carriers loaded with the substances were of the rubber septa type and were inserted in the center of the trap.
(§2) The captures obtained in each of the traps were reviewed biweekly and the captured individuals were taken to the laboratory to be identified and counted.
(§3) The number of males captured per trap and per day was compared using a variance analysis (ANOVA; LSD test for comparison of means, P<0.05), prior transformation (ln(x+1)) of the data in order to homogenize the variance.

[2] = test system: populations of P. longispinus; assay: Preliminary trap tests by UPV in persimmon cultivation, Valencian Community; format: in vivo, Pseudococcus longispinus
Description: The sex pheromone of the species P. longispinus was described by Millar et al. (Sex pheromone of the longtailed mealybug: a new class of monoterpene structure. Organic Letters 2009, 11, 2683-2685) as the compound 2-(1,5,5-trimethylcyclopent-2-en-1-yl)ethyl acetate, in populations of the species collected in the United States. However, this substance turned out to be ineffective in attracting populations of P. longispinus in persimmon cultivation in the Valencian Community. […] This is not uncommon, and this phenomenon has been described for the mealybug P. ficus, whose Californian populations produce a single-component pheromone, while Israeli populations produce an additional compound (Zada, A., Dunkelblum, E., Assael, F., Harel, M., Cojocaru, M. & Mendel, Z. (2003) Sex pheromone of the vine mealybug, Planococcus ficus in Israel: occurrence of a second component in a mass-reared population. Journal of Chemical Ecology, 29, 977-988).

[3] = test system: Pseudococcus longispinus males; assay: Second field trial of attractant activity, persimmon orchard in L'Alcúdia; format: in vivo; conditions: for Attractant activity of baited devices (in words): 250 μg, versus traps without attractant (A); for Captures (mean) of P. longispinus males: rubber septum carrier loaded with 250 μg, white sticky cardboard trap, four blocks
Protocol: as §1, §2, §3
A second field trial was conducted to evaluate the attractant activity of 2-(1,5-dimethyl-4-methylenecyclopent-2-en-1-yl)ethyl propionate, in a persimmon orchard located in L'Alcúdia (Valencia, Spain). Four blocks of 3 devices were installed: (A) a device with a carrier, without attractant and with a trap consisting of a white sticky cardboard (95×150 mm), (B) a device with a carrier loaded with 250 μg of 2-(1,5-dimethyl-4-methylenecyclopent-2-en-1-yl)ethyl propionate and a trap consisting of a white sticky cardboard, and (C) a carrier device loaded with 250 μg of 2-(1,5-dimethyl-4-methylenecyclopent-2-en-1-yl)ethyl acetate and a trap consisting of a white sticky cardboard. The rest of trial conditions were the same as those described above.

[4] = Analysis of attractant content of the carrier after field exposure (emission); format: physicochemical
Protocol: as §1, with “Alginet” left out, “trap. […] Therefore, the average emission during those 21 days is 5.52±1.20 μg/day.” for “trap.”

Compound | Captures (mean) of P. longispinus males [1] | Attraction of populations of P. longispinus (in words) ([2]; persimmon cultivation in the Valencian Community) | Males captured by traps baited with virgin females relative to traps baited with the synthetic pheromone ([2]; preliminary tests, virgin females of P. longispinus as comparator) [times] | Attractant activity of baited devices (in words) [3] | Captures (mean) of P. longispinus males [3] | Attractive power of baited devices (in words) ([1]; 250 μg, versus traps without attractant (A) and pheromone described by Millar et al. (B)) | Final content of the substance in the carrier ([4]; after 21 days, carrier initially loaded with 250 μg) [µg] | Average emission ([4]; during 21 days, rubber septum loaded with 250 μg) [µg/day]
CC(=O)OCCC1(C)C=CCC1(C)C (centres unmarked) [Millar et al. (B), 2-(1,5,5-trimethylcyclopent-2-en-1-yl)ethyl acetate] | 0.21 a | ineffective | 100 | – | – | – | – | –
C=C1C=CC(C)(CCOC(=O)CC)C1C (centres unmarked) [Propionate of formula I (B), 2-(1,5-dimethyl-4-methylenecyclopent-2-en-1-yl)ethyl propionate] | – | – | – | significant attractant activity | 89.07 b | – | – | –
C=C1C=CC(C)(CCOC(C)=O)C1C (racemic) [Acetate of formula I (C), 2-(1,5-dimethyl-4-methylenecyclopent-2-en-1-yl)ethyl acetate] | 19.35 b | – | – | highest level of captures | 406.58 c | significantly higher attractive power | 134 | 5.52 ± 1.20

— patent US20260231936A1, “COMPOUNDS AND COMPOSITIONS THAT ATTRACT THE SPECIES PSEUDOCOCCUS LONGISPINUS, ATTRACTANT DEVICE AND METHODS FOR CONTROLLING AND/OR MONITORING THE PEST” (Universitat Politècnica de València, priority 2023, published 2026)
